From PMC7707092, “Discovery and characterization of ORM‐11372, a novel inhibitor of the sodium‐calcium exchanger with positive inotropic activity” (British Journal of Pharmacology, 2020) come the findings set out here.

pIC50: −log10 of the molar value. “Also recorded” adds a separate entry of the source.

For data set [1], the system named is human iPS cardiomyocyte action potentials. Nature of the data set: Action potentials in spontaneously beating hiPSC cardiomyocytes (Cor.4U). The format is cell-based. The settings on record: 0.1 or 0.3 μM. The method, then:
APs were recorded in spontaneously beating Cor.4U CMs in the current clamp using the perforated patch technique and voltage‐sensitive dye (di‐4‐ANEPPS), in a 96‐well plate format. The latter ratiometric optical measurements were performed on the CellOPTIQ platform at Clyde Biosciences (Newhouse, UK).
Effect of ORM-11372 (A: 0.1 µM; B: 0.3 µM) on human iPS cardiomyocyte action potentials. A left, Action potentials recorded in current-clamp at baseline (black trace), during exposure to ORM-11372 (red trace) and during wash off (grey trace). The dashed line denotes 0 mV. On the right is plotted, for the individual cardiomyocytes (n = 4), the action potential duration (APD) at 30, 50 and 90 % repolarisation in 0.1 µM ORM-11372 as the percentage of their baseline values. B, Action potentials and APDs recorded with voltage sensitive dye at baseline (black trace) and after 30 min treatment with either vehicle (0.1 % DMSO; blue trace and circles) or 0.3 µM ORM-11372 (red trace and squares). The APDs at 30, 50 and 90 % repolarisation […]
vehicle and ORM-11372 (*p<0.05 unpaired Student’s t-test).
(1 picture or pasted object on this page, not shown here)

The target of data set [2] is hERG KV11.1 current (I hERG) (Homo sapiens, UniProt Q12809). Nature of the data set: KV11.1 channel current (I hERG), manual patch‐clamp, CHO cells. The class given is cell-based. The method, then: CHO cells stably expressing either hERG1a (KV11.1) channels (KCNH2; RRID:CVCL_H512) or human 5‐HT2B receptors were cultured at 37°C in a 5% CO2/95% air atmosphere in the Ham's Nutrient Mixture F‐12 (HAM F‐12) medium supplemented with 10% FBS (heat inactivated), 100 μg·ml^−1 of hygromycin B (Invitrogen), and 100 μg·ml^−1 of geneticin or 100 IU·ml^−1 of penicillin and 100 IU·ml^−1 of streptomycin, 25‐mM HEPES, 500 μg·ml^−1 of geneticin, and 250 μg·ml^−1 of Zeocin®. Adhered cells were detached using either Detachin® solution or trypsin and replated twice a week. HEK 293 (RRID:CVCL_0045) and IMR‐32 cells (CCL‐127; RRID:CVCL_0346) were cultured similarly but maintained instead in DMEM, supplemented with 10% FBS (heat inactivated), 100 IU·ml^−1 of penicillin and 100 IU·ml^−1 of streptomycin, and 25‐mM HEPES, and in the case of the IMR‐32 cell line, with minimum essential medium (MEM) non‐essential amino acids. IMR‐32 cells are derived from a human neuroblastoma and endogenously express L‐type (CaV1.x) calcium channel (Sher, Gotti, Pandiella, Madeddu, & Clementi, 1988). […]
Sequence of hERG KV11.1 current (I hERG) (Q12809 whole entry): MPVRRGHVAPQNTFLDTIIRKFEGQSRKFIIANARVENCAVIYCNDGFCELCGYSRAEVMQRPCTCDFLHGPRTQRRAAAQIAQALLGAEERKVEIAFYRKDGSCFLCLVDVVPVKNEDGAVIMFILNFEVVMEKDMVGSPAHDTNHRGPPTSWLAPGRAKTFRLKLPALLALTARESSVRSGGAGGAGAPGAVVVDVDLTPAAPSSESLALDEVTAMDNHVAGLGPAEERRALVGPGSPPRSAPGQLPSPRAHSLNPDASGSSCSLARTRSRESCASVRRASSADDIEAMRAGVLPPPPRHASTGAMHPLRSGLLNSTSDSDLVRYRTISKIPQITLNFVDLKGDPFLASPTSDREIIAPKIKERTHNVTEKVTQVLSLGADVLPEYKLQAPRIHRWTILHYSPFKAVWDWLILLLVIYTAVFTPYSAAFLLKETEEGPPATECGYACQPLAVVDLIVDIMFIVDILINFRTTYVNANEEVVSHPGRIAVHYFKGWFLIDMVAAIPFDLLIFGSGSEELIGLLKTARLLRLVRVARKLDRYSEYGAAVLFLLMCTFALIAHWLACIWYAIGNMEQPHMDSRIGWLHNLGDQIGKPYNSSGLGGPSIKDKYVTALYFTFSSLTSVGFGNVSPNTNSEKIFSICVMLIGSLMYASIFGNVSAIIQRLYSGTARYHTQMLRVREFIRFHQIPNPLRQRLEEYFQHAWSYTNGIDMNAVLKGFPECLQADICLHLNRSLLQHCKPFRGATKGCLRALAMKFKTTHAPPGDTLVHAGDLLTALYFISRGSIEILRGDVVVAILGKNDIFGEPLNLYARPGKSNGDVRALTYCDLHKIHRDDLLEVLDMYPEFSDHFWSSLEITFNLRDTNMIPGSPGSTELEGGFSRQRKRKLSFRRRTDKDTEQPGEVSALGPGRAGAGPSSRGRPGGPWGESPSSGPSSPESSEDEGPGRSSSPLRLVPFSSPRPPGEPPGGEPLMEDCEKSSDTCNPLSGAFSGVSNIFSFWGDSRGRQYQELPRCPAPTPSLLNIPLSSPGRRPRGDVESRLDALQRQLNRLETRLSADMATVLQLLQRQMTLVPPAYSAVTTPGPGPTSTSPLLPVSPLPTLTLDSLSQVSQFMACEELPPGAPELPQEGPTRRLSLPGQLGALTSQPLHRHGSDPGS

Values from hERG‐expressing cells (n = 4) were recorded with the standard extracellular solution at the physiological temperature and a pipette solution containing (in mM) 130 KCl, 7 NaCl, 5 EGTA, 1 MgCl2, 5 Na2ATP, and 5 HEPES (pH was set to 7.2 with KOH; osmolarity was adjusted to 290 ± 3 mOsm). […]

The subject of data set [3] is guinea pig papillary muscle. Description: In vitro contraction dynamics in guinea pig papillary muscle. The settings on record: 1 Hz, 37°C. The text has this:
Guinea pigs (both sex, body weight ranging 342–565 g, Dunkin Hartley, M&B A/S, Ry, Denmark) were used in the study. The animals were housed in solid bottom polycarbonate cages (Makrolon® IV, 385 × 590 × 200 mm) with stainless steel wire mesh lids, up to three animals of same sex per cage. Autoclaved aspen chips (Tapvei Ky, Kaavi, Finland) were used as bedding. A commercially available rodent SDS FD1 (P) SQC pellet diet (Special Diet Services Ltd, Witham, England) and tap water from the public supply (Espoon vesilaitos, Espoo, Finland) were available ad libitum in polycarbonate bottles (800–1,000 ml) with plastic caps (Scanbur A/S, Ejby, Denmark).
Guinea pigs were killed by a blow on the skull and the heart will be excised. Right ventricular papillary muscle was dissected and rinsed in ice‐cold Tyrode's solution. […]
The signal was acquired with a validated acquisition system ACFO v1.0 (Fision Oy, Finland). The following parameters were measured: twitch tension (Tw), rest tension (RT), time to peak tension (TTP), and half relaxation time (HRT). […]
The baseline twitch tensions were measured after a stabilization period of 20–40 min. Thereafter, vehicle (1.1% DMSO) or ORM‐11372 in Tyrode's solution was superfused into the cuvette for 15 min, and the effects were measured from the steady‐state level. […]

Take `Nc1cccc(-c2ccc(CNc3ccc(F)cc3)o2)c1` [ORM‐11372]: the “hiPSC‐CM APD” value in data set [1] is listed as “significant shortening”. Further, the “safety margin (ratio), I NCX over Kv11.1 current” value in data set [2] was ≥ 2,000. This compound gave a pIC50 in data set [2] (manual patch‐clamp, physiological temperature) of 5.00. In data set [3], the half relaxation time entry is “unchanged; also recorded: did not affect”. Also, the twitch tension entry in data set [3] (compared with vehicle) is recorded as “increased”.
